Laboratory results from PubChem BioAssay AID248 (DTP/NCI, 2004).
Where “and” joins values, the source holds several entries; their conditions need not be identical. Equal entries are not always repeated. Toxic doses and inconclusive results are not listed. No stated cut-off is given here; in the data, active means T/C of 150% or more; inactive means T/C below 125%.

System: L1210 leukemia ip in BDF1 mice, survival T/C
Assay: NCI In Vivo Anticancer Drug Screen. Data for tumor model L1210 Leukemia (intraperitoneal) in B6D2F1 (BDF1) mice
Details: endpoint: mean survival time, higher = longer survival
Outline: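 Value reflects the ratio of survival in compound-treated mice to survival in vehicle-treated controls, with both groups carrying the same transplanted tumor.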

[1] = dose: 100.0 mg/kg/injection, schedule: Q01DX001 (ip), vehicle: saline with Tween-80
[2] = dose: 100.0 mg/kg/injection, schedule: Q01DX009 (ip), vehicle: saline with Tween-80
[3] = dose: 100.0 mg/kg/injection, schedule: Q04DX003 (ip), vehicle: saline with Tween-80
[4] = dose: 200.0 mg/kg/injection, schedule: Q01DX001 (ip), vehicle: saline with Tween-80
[5] = dose: 200.0 mg/kg/injection, schedule: Q01DX009 (ip), vehicle: saline with Tween-80
[6] = dose: 200.0 mg/kg/injection, schedule: Q04DX003 (ip), vehicle: saline with Tween-80
[7] = dose: 400.0 mg/kg/injection, schedule: Q01DX001 (ip), vehicle: saline with Tween-80
[8] = dose: 400.0 mg/kg/injection, schedule: Q01DX009 (ip), vehicle: saline with Tween-80
[9] = dose: 400.0 mg/kg/injection, schedule: Q04DX003 (ip), vehicle: saline with Tween-80
[10] = dose: 50.0 mg/kg/injection, schedule: Q01DX009 (ip), vehicle: saline
[11] = dose: 100.0 mg/kg/injection, schedule: Q01DX009 (ip), vehicle: saline
[12] = dose: 100.0 mg/kg/injection, schedule: Q04DX003 (ip), vehicle: saline
[13] = dose: 200.0 mg/kg/injection, schedule: Q01DX009 (ip), vehicle: saline
[14] = dose: 200.0 mg/kg/injection, schedule: Q04DX003 (ip), vehicle: saline
[15] = dose: 100.0 mg/kg/injection, schedule: Q04DX002 (ip), vehicle: saline
[16] = dose: 200.0 mg/kg/injection, schedule: Q04DX002 (ip), vehicle: saline
[17] = dose: 400.0 mg/kg/injection, schedule: Q04DX002 (ip), vehicle: saline
[18] = dose: 100.0 mg/kg/injection, schedule: Q01DX001 (ip), vehicle: carboxymethylcellulose (CMC)
[19] = dose: 200.0 mg/kg/injection, schedule: Q01DX001 (ip), vehicle: carboxymethylcellulose (CMC)
[20] = dose: 400.0 mg/kg/injection, schedule: Q01DX001 (ip), vehicle: carboxymethylcellulose (CMC)
[21] = dose: 100.0 mg/kg/injection, schedule: Q04DX002 (ip), vehicle: saline with Tween-80
[22] = dose: 200.0 mg/kg/injection, schedule: Q04DX002 (ip), vehicle: saline with Tween-80
[23] = dose: 400.0 mg/kg/injection, schedule: Q04DX002 (ip), vehicle: saline with Tween-80

Measured: T/C

Cc1cnc(SCc2ccc(Cl)cc2)nc1N(Cc1ccccc1)Cc1ccccc1
inactive: dose: 100.0 mg/kg/injection, schedule: Q01DX Z (ip), vehicle: methylcellulose (MC) 87 % of control

NC(=O)c1cn[nH]c1/N=N/N1CCCC1C(=O)O (centres undefined)
inactive: [1] 100 % of control | [2] 111 % of control | [3] 104 % of control | [4] 107 % of control | [5] 97 % of control | [6] 104 % of control | [7] 102 % of control | [8] 94 % of control | [9] 106 % of control

C[N+]1(C)C2CC(=O)CC1C1CC12 (centres undefined) (tested in a mixture with another compound)
inactive: [10] 106 % of control | [11] 108 % of control | [12] 94 % of control | [13] 90 % of control | [14] 100 % of control

Nc1cc(S(=O)(=O)O)cc2cc(S(=O)(=O)O)cc(O)c12
inactive: dose: 50.0 mg/kg/injection, schedule: Q04DX002 (ip), vehicle: saline 92 % of control | [15] 100 % of control and 118 % of control | [16] 92 % of control | [17] 122 % of control and 92 % of control

O=C(NCCC[P+](c1ccccc1)(c1ccccc1)c1ccccc1)OCc1ccccc1
inactive: dose: 12.5 mg/kg/injection, schedule: Q01DX009 (ip), vehicle: carboxymethylcellulose (CMC) 101 % of control and 120 % of control | dose: 12.5 mg/kg/injection, schedule: Q04DX002 (ip), vehicle: carboxymethylcellulose (CMC) 103 % of control | dose: 25.0 mg/kg/injection, schedule: Q01DX001 (ip), vehicle: carboxymethylcellulose (CMC) 87 % of control and 91 % of control | dose: 25.0 mg/kg/injection, schedule: Q01DX009 (ip), vehicle: carboxymethylcellulose (CMC) 103 % of control | dose: 25.0 mg/kg/injection, schedule: Q04DX002 (ip), vehicle: carboxymethylcellulose (CMC) 100 % of control and 91 % of control | dose: 25.0 mg/kg/injection, schedule: Q04DX003 (ip), vehicle: carboxymethylcellulose (CMC) 97 % of control and 98 % of control | dose: 50.0 mg/kg/injection, schedule: Q01DX001 (ip), vehicle: carboxymethylcellulose (CMC) 95 % of control and 104 % of control | dose: 50.0 mg/kg/injection, schedule: Q04DX002 (ip), vehicle: carboxymethylcellulose (CMC) 100 % of control | dose: 50.0 mg/kg/injection, schedule: Q04DX003 (ip), vehicle: carboxymethylcellulose (CMC) 97 % of control and 100 % of control

CCN(CC)S(=O)(=O)c1cccc(C(=O)CC(O)(C(F)(F)F)C(F)(F)F)c1
inactive: [3] 94 % of control | [6] 102 % of control | [9] 108 % of control

CCOC(=O)N1Cc2cc3cc(OC)ccc3nc2C1
inactive: dose: 50.0 mg/kg/injection, schedule: Q01DX009 (ip), vehicle: acetone 98 % of control | dose: 100.0 mg/kg/injection, schedule: Q01DX009 (ip), vehicle: acetone 95 % of control | [12] 94 % of control | dose: 200.0 mg/kg/injection, schedule: Q01DX009 (ip), vehicle: acetone 95 % of control | [14] 89 % of control | dose: 400.0 mg/kg/injection, schedule: Q04DX003 (ip), vehicle: saline 105 % of control

C/C=C/C=C\COC(=O)C1CCCC1
inactive: [15] 103 % of control and 107 % of control | [16] 96 % of control and 98 % of control | [17] 107 % of control | dose: 600.0 mg/kg/injection, schedule: Q04DX002 (ip), vehicle: saline 107 % of control

COc1ccc(NC(=O)CSc2cc(Cl)ccc2Cl)cc1
inactive: [18] 102 % of control | [19] 96 % of control | [20] 90 % of control

COc1ccc2c(ccc3ccc4ccccc4c32)c1
inactive: dose: 100.0 mg/kg/injection, schedule: Q01DX001 (ip), vehicle: Klucel (hydroxypropylcellulose) (HPC) 105 % of control | dose: 200.0 mg/kg/injection, schedule: Q01DX001 (ip), vehicle: Klucel (hydroxypropylcellulose) (HPC) 102 % of control | dose: 400.0 mg/kg/injection, schedule: Q01DX001 (ip), vehicle: Klucel (hydroxypropylcellulose) (HPC) 100 % of control

O=C1c2cc(Cl)ccc2-c2c(NC(=O)C(Cl)Cl)cc(Cl)cc21
inactive: [18] 91 % of control | [19] 93 % of control | [20] 96 % of control

NC1(CO)COC(c2ccccc2)OC1 (centres undefined)
inactive: dose: 12.5 mg/kg/injection, schedule: Q01DX009 (ip), vehicle: saline 102 % of control | dose: 12.5 mg/kg/injection, schedule: Q04DX003 (ip), vehicle: saline 102 % of control | dose: 25.0 mg/kg/injection, schedule: Q01DX009 (ip), vehicle: saline 94 % of control | dose: 25.0 mg/kg/injection, schedule: Q04DX003 (ip), vehicle: saline 96 % of control | [10] 96 % of control and 104 % of control | dose: 50.0 mg/kg/injection, schedule: Q04DX003 (ip), vehicle: saline 105 % of control | dose: 100.0 mg/kg/injection, schedule: Q01DX009 (ip), vehicle: saline sonified 96 % of control | [11] 112 % of control | [12] 107 % of control and 110 % of control

CN(C)N=Nc1ccccc1I
inactive: dose: 100.0 mg/kg/injection, schedule: Q01DX009 (ip), vehicle: Klucel (hydroxypropylcellulose) (HPC) 103 % of control | dose: 200.0 mg/kg/injection, schedule: Q01DX009 (ip), vehicle: Klucel (hydroxypropylcellulose) (HPC) 104 % of control and 105 % of control | dose: 400.0 mg/kg/injection, schedule: Q01DX009 (ip), vehicle: Klucel (hydroxypropylcellulose) (HPC) 113 % of control and 116 % of control | dose: 600.0 mg/kg/injection, schedule: Q01DX009 (ip), vehicle: Klucel (hydroxypropylcellulose) (HPC) 115 % of control

O=C(NC(=S)Nc1cccc2c(O)cccc12)c1ccc(Cl)cc1Cl
inactive: [1] 105 % of control | [2] 98 % of control and 90 % of control | [21] 95 % of control and 98 % of control | [3] 103 % of control | [4] 103 % of control | [5] 97 % of control and 117 % of control | [22] 101 % of control and 106 % of control | [6] 92 % of control | [7] 106 % of control | [8] 94 % of control and 98 % of control | [23] 95 % of control and 90 % of control | [9] 94 % of control

N#Cc1ncc(-c2ccccc2)nc1C#N
inactive: [2] 103 % of control | [5] 100 % of control | [8] 88 % of control

Cc1ccc(C)c2c3c(sc12)CCCC3
inactive: [18] 95 % of control | [19] 90 % of control | [20] 101 % of control

O=C(NC(=O)c1cccc(Br)c1)Nc1ccccc1
inactive: dose: 264.0 mg/kg/injection, schedule: Q01DX001 (ip), vehicle: carboxymethylcellulose (CMC) 92 % of control | [20] 96 % of control | dose: 600.0 mg/kg/injection, schedule: Q01DX001 (ip), vehicle: carboxymethylcellulose (CMC) 90 % of control

CCOC(CN(Cc1ccccc1)CC(OCC)OCC)OCC
inactive: dose: 50.0 mg/kg/injection, schedule: Q04DX002 (ip), vehicle: saline with Tween-80 100 % of control | [21] 97 % of control and 100 % of control | [22] 92 % of control | [23] 91 % of control

CN1CCN(C(=O)c2ccccc2C(=O)O)CC1
inactive: dose: 100.0 mg/kg/injection, schedule: Q01DX001 (ip), vehicle: saline 101 % of control | dose: 200.0 mg/kg/injection, schedule: Q01DX001 (ip), vehicle: saline 96 % of control

C[N+](C)(C)CC(=O)[O-]
inactive: [11] 108 % of control | [12] 103 % of control | [13] 91 % of control | [14] 94 % of control

O=C1OC2CCCCC2/C1=C/OS(=O)(=O)C(F)(F)F (centres undefined)
inactive: dose: 12.5 mg/kg/injection, schedule: Q01DX009 (ip), vehicle: DMSO 105 % of control | dose: 25.0 mg/kg/injection, schedule: Q01DX009 (ip), vehicle: DMSO 103 % of control | dose: 50.0 mg/kg/injection, schedule: Q01DX009 (ip), vehicle: DMSO 110 % of control | dose: 100.0 mg/kg/injection, schedule: Q01DX009 (ip), vehicle: DMSO 110 % of control | dose: 200.0 mg/kg/injection, schedule: Q01DX009 (ip), vehicle: DMSO 117 % of control
